Experimental data reported in patent US7449480B2, “Small molecule inhibitors of HER2 expression” (Baylor College of Medicine, priority 2002, dated 2008).
Entries after “also recorded” stand apart in the source; their conditions may differ. Blank lines part the entries; values can stand above or below the compound they belong to.

Columns and labels:
[1] = tested on: Her2; test: Her2 protein expression by western blot of cell lysates; format: cell-based, human; conditions: SK-BR3 cells, 7 μM, 24 hrs; alpha-tubulin not reduced
Description: Sur-2 is a human homolog of […] elegans Sur-2, a protein of unknown function whose mutations suppress the phenotype of an activated ras mutation (Singh et al., 1995), and it has been linked to the transcription-activating function of the adenovirus E1A protein and the Elk-1 transcription factor. […] To test this, we designed a cell-permeable peptide that binds Sur-2 (referred to as TAT-ESX129-145). The design takes advantage of the binding affinity of ESX129-145 and the cell internalization property of the 11-aa peptide derived from the HIV TAT protein. We first examined whether TAT ESX129-145 reduces endogenous expression of the Her2 gene in three Her2-overexpressing breast cancer cell lines, SK-BR-3, MDA-MB-453, and […] (FIG. 4). Cells were incubated in the presence or absence of TAT-ESX129-145, and the protein levels of Her2 were examined by Western blot analyses of normalized amounts of cell lysates.
Her2-overexpressing SK-BR3 cells were treated by 7.3 μM of adamanolol for 24 hrs, and whole cell lysates were analyzed by western blots. […]
SK-BR3 cells were treated by 7 μM of wrenchnolol for 24 hrs, and whole cell lysates were analyzed by western blots. […]

[2] = biological target: T1, Sur-2 (GST-Sur2352-625) (Homo sapiens, UniProt Q9ULK4); test: Fluorescence perturbation of fluorescein conjugate 9 by GST-Sur2352-625; format: binding; conditions: measured with fluorescein conjugate 9, emission at 522 nm
T1 construct: made in house
T1 sequence (Q9ULK4 352-625): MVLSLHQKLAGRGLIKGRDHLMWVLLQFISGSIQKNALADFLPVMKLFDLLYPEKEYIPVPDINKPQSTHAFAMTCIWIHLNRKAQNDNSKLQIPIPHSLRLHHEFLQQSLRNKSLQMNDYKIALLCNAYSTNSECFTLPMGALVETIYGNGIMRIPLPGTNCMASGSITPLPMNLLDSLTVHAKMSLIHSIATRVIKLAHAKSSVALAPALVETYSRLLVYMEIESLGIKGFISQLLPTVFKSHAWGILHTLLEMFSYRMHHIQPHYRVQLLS
Protocol: (§1) HeLa cell nuclear extracts were prepared as described47 and incubated with a biotin conjugate of wrenchnolol (8) (100 μM) at 4° C. for 24 hrs. The samples were incubated with Neutravidin affinity resin (Pierce) at 4° C. for 2 hrs and extensively washed with PBS buffer containing 0.5% Nonidet P-40. The bound proteins were then separated by SDS/PAGE and analyzed by western blots with an antibody against human Sur-2 or by silver-staining. A=Ao+0.5.e([9]o+(([9]o+[P]oKd)2−4[9]o[P]o)0.5)
Where A and Ao are the values of fluorescence intensity of 9 in the presence or absence of GST-Sur2352-625, respectively, and .e is the differential fluorescence intensity of 1 μM of 9 in the presence of an infinite concentration of protein and in its absence. [9]o and [P]o are the total concentrations of 9 and protein added, respectively.
The fluorescein conjugate 9 also enabled evaluation of the Kd value of the interaction between wrenchnolol and Sur-2 in vitro. Shown in FIG. 22C are relative emission intensities of 9 at 522 nm (excitation: 490 nm) in the presence of varied concentrations of GST-Sur2352-625. When a GST fusion of Sur-2 protein (GST-Sur2352-625) was added to a solution of conjugate 9, the fluorescence intensity of 9 at 522 nm was decreased ([…]).

[3] = tested on: NF-κB p65 activation domain; test: Transcription reporter gene assay (GAL4 fusion, SEAP), NF-κB p65 activation domain; format: cell-based, human; conditions: HEK293 cells, 20 μM, 10-hr incubation
Protocol: (§2) mammalian expression vectors, each encoding the activation domain of ESX, VP16, or NF-κB p65 fused with the GAL4 DNA-binding domain (amino acids 1-94), were used. Each expression construct was co-transfected to HEK293Tag human kidney cells together with a reporter plasmid in which the production of secreted alkaline phosphatase (SEAP) is under control of an IL2 promoter carrying five GAL4 binding sites. After 10-hr incubation with wrenchnolol (20 μM), an aliquot of the culture was assayed for SEAP activity.

[4] = tested on: VP16 activation domain; test: Transcription reporter gene assay (GAL4 fusion, SEAP), VP16 activation domain; format: cell-based; conditions: HEK293 cells, 20 μM, 10-hr incubation
Protocol: (§3) Mammalian expression vectors each encoding the activation domain of ESX, VP16, or NFκBp65 fused with the GAL4 DNA-binding domain were used. Each expression construct was co-transfected to HEK293Tag human kidney cells together with a reporter plasmid in which the production of secreted alkaline phosphatase (SEAP) is under control of an IL-2 promoter carrying five GAL4 binding sites. After a 24 hour incubation in the presence or absence of adamanolol, an aliquot of the culture was assayed for SEAP activity. The total amounts of transfected DNA were normalized.
as §2

[5] = biological target: T2, ESX-Sur-2 interaction (Homo sapiens, UniProt Q9ULK4); test: Inhibition of the ESX-Sur-2 interaction in vitro (fluorescence of FITC-ESX129-145 with GST-Sur2352-625); format: binding
T2 construct: made in house
T2 sequence (Q9ULK4 352-625): T1 sequence (Q9ULK4 352-625)
Protocol: To monitor the ESX-DRIP130 interaction, we labeled ESX129-145 with fluorescein isothiocyanate (FITC; Pierce) at the Lys144 position and measured its fluorescence spectra upon adding the glutatathione-S′-transferase (GST) fusion of DRIP130352-625. ESX129-145 was synthesized by standard Fmoc chemistry (the NH2 terminus was capped by an acetyl group during the synthesis) and purified by HPLC. The peptide was then coupled with FITC at the Lys144 position in a conjugation buffer (100 mM carbonate-bicarbonate buffer, pH 9) in dark and purified by NAP-5 desalting column (Amersham). The labeled peptide was quantified by UV and visible absorbance.
GST-Sur-2352-625 was expressed and purified. Varied concentrations of the fusion protein were added to FITC-ESX129-145 (10 nM) in phosphate buffered saline containing 2% (v/v) ethanol, and the fluorescence spectra of FITC-ESX129-145 were measured by an ABI LS-50B Fluorescence Spectrometer (Ex: 490 nm). The dissociation constant of the interaction was estimated to be 12 μM through the emission perturbation at 522 nm.
To examine the effects of adamanolol on the interaction in vitro, the ethanol component of the binding buffer was replaced with an ethanolic solution of adamanolol. The fractions of FITC-ESX129-145 (10 nM) bound to 50 μM of GST-Sur-2352-625 were estimated by measuring fluorescence emission at 522 nm. ESX129-145 and pindolol were used as positive and negative controls, respectively.
In another series of derivatives (the R3 substituents in Table 1), the adamantane group of adamanolol was substituted (11a-d). […] The binding fractions were calculated on the basis of fluorescence spectra of FITC-ESX129-145 (152 nM) in presence of GST-Sur2352-625 (212 nM) and varied concentrations of each adamanolol derivative.

[6] = Solubility in neutral aqueous solution; format: physicochemical; conditions: amino group of the handle protonated
Protocol: When the amino group of the handle was protonated, wrenchnolol (7b) and its aminopropyl version (7a) became soluble up to ˜1 mM in neutral aqueous solution. The high water solubility enabled NMR analysis of these molecules in a buffered aqueous solution, and their proton signals were completely assigned through a combination of NOESY, DQF-COSY, and HOHAHA data sets (Table S1).

[7] = tested on: SK-BR3 breast cancer cells; test: Cell viability assay (WST-1) in SK-BR3 breast cancer cells; format: cell-based, human
Protocol: SK-BR3 breast cancer cells were plated on 96-well plates at density of 5×10^3 cells/well and maintained for 24 hrs. The cells were then incubated with varied concentrations of each compound for 48 hrs, followed by addition of Premix WST-1 Solution (Takara). Cell viability was estimated by measuring absorbance at 450 nm after 1 hr with a SPECTRAmax microplatereader.

[8] = tested on: ESX activation domain; test: Transcription reporter gene assay (GAL4 fusion, SEAP), ESX activation domain; format: cell-based, human; conditions: HEK293 cells, 20 μM, 10-hr incubation
Protocol: as §3, §2

[9] = biological target: T3, Sur-2 (Homo sapiens, UniProt Q9ULK4); test: Sur-2 interaction of biotin conjugate in HeLa cell nuclear extracts (Neutravidin affinity, western blot); format: binding; conditions: 100 μM, 4° C., 24 hrs
T3 construct: HeLa cell nuclear extracts were prepared as described47 and incubated with a biotin conjugate of wrenchnolol (8); endogenous in cells; host or cells: HeLa cell nuclear extracts
T3 sequence (Q9ULK4 1-1368): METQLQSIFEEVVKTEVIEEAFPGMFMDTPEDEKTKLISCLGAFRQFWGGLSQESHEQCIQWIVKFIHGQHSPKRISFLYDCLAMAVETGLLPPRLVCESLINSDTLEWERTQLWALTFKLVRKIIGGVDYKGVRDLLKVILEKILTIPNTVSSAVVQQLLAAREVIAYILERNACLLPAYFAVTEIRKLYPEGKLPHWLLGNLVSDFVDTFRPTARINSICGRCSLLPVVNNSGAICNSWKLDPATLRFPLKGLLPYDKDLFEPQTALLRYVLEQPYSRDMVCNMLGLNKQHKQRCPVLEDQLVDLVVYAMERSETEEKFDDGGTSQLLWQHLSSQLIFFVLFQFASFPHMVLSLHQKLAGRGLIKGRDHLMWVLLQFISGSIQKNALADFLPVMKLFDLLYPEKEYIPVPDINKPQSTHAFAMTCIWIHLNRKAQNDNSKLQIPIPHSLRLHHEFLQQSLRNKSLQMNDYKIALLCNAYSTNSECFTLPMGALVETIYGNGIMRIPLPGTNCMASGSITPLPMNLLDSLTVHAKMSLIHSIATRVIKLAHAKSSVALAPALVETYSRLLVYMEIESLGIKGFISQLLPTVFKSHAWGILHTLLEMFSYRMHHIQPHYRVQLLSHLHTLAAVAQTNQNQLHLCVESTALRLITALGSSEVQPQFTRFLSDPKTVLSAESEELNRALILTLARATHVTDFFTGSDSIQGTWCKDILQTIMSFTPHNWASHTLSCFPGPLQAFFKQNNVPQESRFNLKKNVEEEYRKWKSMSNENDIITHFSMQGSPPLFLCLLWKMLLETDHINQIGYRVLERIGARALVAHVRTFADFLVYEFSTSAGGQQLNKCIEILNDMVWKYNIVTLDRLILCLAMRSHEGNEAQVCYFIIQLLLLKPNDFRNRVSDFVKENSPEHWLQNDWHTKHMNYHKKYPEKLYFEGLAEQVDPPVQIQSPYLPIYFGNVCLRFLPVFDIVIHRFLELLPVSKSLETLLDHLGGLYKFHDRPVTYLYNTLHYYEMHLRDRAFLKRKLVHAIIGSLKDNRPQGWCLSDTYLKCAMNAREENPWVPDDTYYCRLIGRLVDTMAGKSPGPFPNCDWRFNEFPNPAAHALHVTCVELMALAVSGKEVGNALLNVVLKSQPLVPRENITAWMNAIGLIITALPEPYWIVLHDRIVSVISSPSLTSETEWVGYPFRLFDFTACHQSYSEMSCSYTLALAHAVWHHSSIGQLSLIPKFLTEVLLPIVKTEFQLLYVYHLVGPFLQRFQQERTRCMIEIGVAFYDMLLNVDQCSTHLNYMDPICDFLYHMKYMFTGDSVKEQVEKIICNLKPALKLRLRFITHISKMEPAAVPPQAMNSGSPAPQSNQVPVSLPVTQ
Protocol: as §1
To confirm the interaction of wrenchnolol with Sur-2 in a cellular context, a biotin conjugate of wrenchnolol (8) was synthesized (Scheme 1) and incubated with cell nuclear extracts. The bound proteins were purified through an avidin affinity column, separated on an SDS-PAGE gel, and analyzed by western blots with a Sur-2 antibody. […] One of the silver-stained bands matched the western-blotted band of Sur-2, while the identities of the other bands remained unknown. Sur-2 (also called DRIP130 or CRSP130) is a subunit of the human mediator complexes. The additional bands may include those of the other subunits copurified with Sur-2.

[10] = tested on: MCF-7 Her18; test: Cell death in MCF7 cells stably transfected with the Her2 gene; format: cell-based, human; conditions: ectopic Her2 on a heterologous promoter
Description: In contrast to the Her2-overexpressing cells, MDA-MB-468, a breast cancer cell line with no detectable levels of Her2, was resistant to TAT-ESX129-145 (FIGS. 5A and 5B). […] The effects of TAT-ESX129-145 on an MCF7 cell line stably transfected with the Her2 gene were examined.

Compound: Cc1ccc(S(=O)(=O)n2ccc3c(OCC(O)CN(CCCCCN)C(=O)N4CCC(C5CCN(C(=O)C67CC8CC(CC(C8)C6)C7)CC5)CC4)cccc32)cc1 (stereo not drawn) [Compound 7b, Wrenchnolol]
- expression of Her2 protein [1]: reduces; also recorded: inhibition of Her2 protein expression
- Kd of the wrenchnolol-Sur-2 interaction [2]: low μM range
- effect on the NF-κB p65 activation domain [3]: much milder effects
- effect on the VP16 activation domain [4]: much milder effects
- IC50 ([5]; FITC-ESX129-145 (152 nM), GST-Sur2352-625 (212 nM)): 10 ± 1.5 µM
- inhibition of the ESX-Sur-2 interaction in vitro (in words) ([5]; in vitro fluorescence assay): more strongly than adamanolol
- solubility in neutral aqueous solution [6]: ~1000 µM
- IC50 ([7]; 48 hrs incubation, WST-1): 6.9 µM
- ability to kill SK-BR3 cells (biological activity, in words) ([7]; compared with adamanolol): no less active than adamanolol
- ability of the ESX activation domain to activate the reporter gene [8]: impaired; also recorded: selectively impairs

- retention of Sur-2 protein on the affinity column [9]: no Sur-2 protein was detected
Compound: O=C(O)CCCC[C@@H]1SC[C@@H]2NC(=O)N[C@@H]21 [Compound 13]

Compound: ESX129-145: 17-aa segment of the ESX activation domain (TSSSSDELSWIIELLEK; UniProt P78545 129-145, looked up, fragment)
- peptide-mediated cell death in Her2-transfected MCF7 cells [10]: resistant
